Consider 57 molecules from ChEMBL document CHEMBL4476866, “Pyrrol-1-yl benzoic acid derivatives useful as myc inhibitors” (2015).

One assay concerns MM1.S. In words: Cytotoxic activity against human MM1S cells assessed as reduction in cell viability incubated for 3 days by ATPlite assay. The class given is functional, cell-based.
The subject of another assay is NCI-H2171. In words: Cytotoxic activity against human NCI-H2171 cells assessed as reduction in cell viability incubated for 3 days by ATPlite assay. The format is functional, cell-based.
Assay [1] concerns the target Myc proto-oncogene protein (Homo sapiens, UniProt P01106). In words: Inhibition of human c-Myc assessed as reduction in c-Myc/Max/Ebox DNA complex formation using pre-formed complex of c-Myc and biotinylated DNA containing single Ebox-sequence followed by compound addition and further addition of his6-tagged c-Max and incubated for 2 hrs by AlphaScreen assay.
The mark [2] stands for this setting: Homo sapiens, NCI-H2171, 72 h, read-out: EC50.
The mark [3] stands for this setting: Homo sapiens, MM1.S, 72 h, read-out: EC50.

Usually EC50 stands for the midpoint of the concentration-response curve. By IC50 is commonly meant the concentration at which inhibition is half-maximal.

Myc proto-oncogene protein, sequence (P01106 whole entry): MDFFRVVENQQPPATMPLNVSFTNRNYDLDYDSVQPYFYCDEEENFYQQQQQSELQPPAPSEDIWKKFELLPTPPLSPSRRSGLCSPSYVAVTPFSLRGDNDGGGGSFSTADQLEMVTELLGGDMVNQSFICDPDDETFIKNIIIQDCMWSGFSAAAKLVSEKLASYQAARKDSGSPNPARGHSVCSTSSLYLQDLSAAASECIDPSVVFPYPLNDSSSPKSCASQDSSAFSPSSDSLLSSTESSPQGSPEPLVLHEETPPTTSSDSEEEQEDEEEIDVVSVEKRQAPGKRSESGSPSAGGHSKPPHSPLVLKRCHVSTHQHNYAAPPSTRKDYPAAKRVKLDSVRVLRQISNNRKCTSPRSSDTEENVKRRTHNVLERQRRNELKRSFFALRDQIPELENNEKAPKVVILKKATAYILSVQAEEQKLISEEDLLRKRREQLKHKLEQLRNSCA

For the molecule `Cc1ccc(C)n1-c1cc(C(=O)N/N=C\c2ccc(C(=O)O)s2)ccc1C(=O)O`, the EC50 entry with MM1.S (mm1.s) was “Not Active”. Turning to `Cc1ccc(C)n1-c1cc(C(=O)NNC(=O)c2cccc(C(=O)O)c2)ccc1C(=O)O`, the half-maximal effective concentration (EC50) entry with NCI-H2171 (nci-h2171) and in the assay on MM1.S (mm1.s) was “Not Active” each time. As for `CC(=O)OCOC(=O)c1ccc(C(=O)N/N=C/c2c[nH]cn2)cc1-n1c(C)ccc1C`, the EC50 result with MM1.S (mm1.s) is “Not Active”. The same measure, in the same setting: the same measure for `Cc1ccc(C)n1-c1cc(C(=O)N/N=C/c2ccc(S(=O)(=O)O)o2)ccc1C(=O)O`: “Not Active”.

Take `Cc1ccc(C)n1-c1ccccc1C(N)=O`: the IC50 result in assay [1] is “Not Active”.

For `Cc1ccc(C)n1-c1cc(C(=O)N/N=C/c2cccc(B(O)O)c2)ccc1C(=O)O`, the EC50 entry in the assay with NCI-H2171 (nci-h2171) and in the assay on MM1.S (mm1.s) was “Not Active” in each case. For `Cc1ccc(C)n1-c1cc(C(=O)N2CCOCC2)ccc1C(=O)O`, the EC50 entry in the assay with MM1.S (mm1.s) is given as “Not Active”. Still for that read-out and setting: the same measure for `Cc1ncc(CO)c(/C=N/NC(=O)c2ccc(C(=O)O)c(-n3c(C)ccc3C)c2)c1O`: “Not Active”; for `Cc1cc(C(=O)O)ccc1-n1c(C)ccc1C`: “Not Active”.

As to `Cc1ccc(C)n1-c1cc(C(=O)N/N=C/c2c[nH]c3ccc(F)cc23)ccc1C(=O)O`, the concentration for a half-maximal effect (EC50) result in the assay on NCI-H2171 (nci-h2171) and in the assay with MM1.S (mm1.s) was “Not Active” throughout. With `Cc1ccc(C)n1-c1cc(C(=O)N/N=C/c2ncc[nH]2)ccc1C(=O)O`, the EC50 entry in the assay with MM1.S (mm1.s) was “Not Active”. In the case of `Cc1cc(C(=O)N/N=C/c2ccccc2)c(C)n1-c1ccccc1C(=O)O`, the 50% effective concentration (EC50) result in the assay on NCI-H2171 (nci-h2171) and in the assay with MM1.S (mm1.s) was “Not Active” throughout.

For the molecule `Cc1ccc(C)n1-c1cc(C(=O)N/N=C/c2c[nH]c3ccc(C#N)cc23)ccc1C(=O)O`, the EC50 was found to be 3240 µM in the assay on NCI-H2171 (setting [2]) and 5.75 µM in the assay with MM1.S (setting [3]). `Cc1ccc(C)n1-c1ccc(C(=O)O)cc1O`: the half-maximal effective concentration (EC50) entry with MM1.S (mm1.s) is reported as “Not Active”. On to `COC(=O)c1ccc(-n2cccc2)cc1O`, for which the IC50 result in assay [1] is given as “Not Active”. With `Cc1ccc(C)n1-c1ccc(C(=O)O)c(O)c1`, the results for the EC50 in the assay on NCI-H2171 (setting [2]) and in the assay with MM1.S (setting [3]) were 189 to 517 µM and 517 to 1440 µM, respectively. For the molecule `Cc1ccc(C)n1-c1cc(C(=O)N/N=C/c2cccc3ncccc23)ccc1C(=O)O`, the EC50 entry in the assay with MM1.S (mm1.s) is “Not Active”. In the case of `Cc1ccc(C)n1-c1cc(C(=O)NN)ccc1C(=O)O`, the EC50 in the assay on NCI-H2171 (nci-h2171, read-out: EC50) was 0.00363 to 43.7 µM; in the assay on MM1.S (setting [3]) it was 625 to 1240 µM. Take `COc1ncc(/C=N/NC(=O)c2ccc(C(=O)O)c(-n3c(C)ccc3C)c2)c(OC)n1`: the concentration for a half-maximal effect (EC50) result in the assay on MM1.S (mm1.s) is on record as “Not Active”. As for `CC(=O)OCOC(=O)c1ccc(C(=O)N/N=C/c2ccc(O)c(O)c2O)cc1-n1c(C)ccc1C`, the EC50 turned out to be 2.23 µM in the assay with NCI-H2171 (setting [2]) and 14.8 µM in the assay with MM1.S (setting [3]).

On to `Cc1ccc(C)n1-c1ccc(Cl)cc1C(=O)O`, for which the EC50 entry with MM1.S (mm1.s) is recorded as “Not Active”. In the case of `CC(=O)OCOC(=O)c1ccc(-n2c(C)ccc2C)cc1O`, the values for the EC50 in the assay on NCI-H2171 (setting [2]) and in the assay on MM1.S (setting [3]) were 2.8 to 66.1 µM and 11 to 446 µM, respectively. As for `Cc1ccc(C)n1-c1cccc(C(=O)c2ccccc2)c1C(=O)O`, the half-maximal effective concentration (EC50) result in the assay on MM1.S (mm1.s) was “Not Active”.

Turning to `Cc1ccc(C)n1-c1cc(C(=O)N/N=C/c2ccc3cccnc3n2)ccc1C(=O)O`, the EC50 entry with NCI-H2171 (nci-h2171) is recorded as “Not Active”. For the molecule `Cc1ccc(C)n1-c1cc(C(=O)N/N=C\c2cccc(C(=O)O)c2)ccc1C(=O)O`, the EC50 entry in the assay with NCI-H2171 (nci-h2171) and in the assay on MM1.S (mm1.s) was “Not Active” each time. Regarding `CN1CCN(c2ccccc2C(=O)O)CC1`, the EC50 entry in the assay on MM1.S (mm1.s) is listed as “Not Active”. Turning to `Cc1ccc(C)n1-c1cc(C(=O)N/N=C\c2ccc(O)c(F)c2)ccc1C(=O)O`, the EC50 entry in the assay on NCI-H2171 (nci-h2171) and in the assay with MM1.S (mm1.s) was “Not Active” throughout. `Cc1ccc(C)n1-c1cc(C(=O)N/N=C/c2ccc(O)cc2)ccc1C(=O)O`: the EC50 entry in the assay on NCI-H2171 (nci-h2171) and with MM1.S (mm1.s) was “Not Active” in each case.

For the molecule `CC(=O)OCOC(=O)c1ccccc1-n1c(C)ccc1C`, the results for the EC50 in the assay with NCI-H2171 (setting [2]) and with MM1.S (setting [3]) were 20.7 to 29.9 µM and 52.3 to 71.4 µM, respectively. Take `Cc1c2ccccc2c(C)n1-c1ccccc1C(=O)O`: the EC50 entry with NCI-H2171 (nci-h2171) and in the assay on MM1.S (mm1.s) was “Not Active” throughout. Consider `COC(=O)c1ccc(-n2c(C)ccc2C)cc1O`, for which the concentration giving a half-maximal response (EC50) result in the assay with NCI-H2171 (nci-h2171) and in the assay on MM1.S (mm1.s) was “Not Active” in each case. Take `CN(C)c1ccc(/N=N/c2ccccc2C(=O)O)cc1`: the EC50 result in the assay with MM1.S (mm1.s) is reported as “Not Active”. Take `Cc1ccc(C)n1-c1cc(C(=O)N/N=C/c2ccc(C(=O)O)o2)ccc1C(=O)O`: the concentration giving a half-maximal response (EC50) result with NCI-H2171 (nci-h2171) and with MM1.S (mm1.s) was “Not Active” throughout. With `Cc1ccc(C)n1-c1cc(C(=O)N/N=C/c2ccc(N(C)C)cc2)ccc1C(=O)O`, in the assay with NCI-H2171 (nci-h2171), the EC50 result is recorded as “Not Active”.

As to `CC(=O)OCOC(=O)c1ccccc1N1CCN(C)CC1`, the IC50 result in assay [1] is “Not Active”. On the same count and under the same terms, the same measure for `CC(=O)OCOC(=O)c1ccccc1-n1ccnc1C`: “Not Active”. The same measure, in the same setting: the same measure for `O=C(O)c1ccccc1-n1c2ccccc2c2ccccc21`: “Not Active”. As to `Cc1ccc(C)n1-c1ncccc1C(=O)O`, in the assay on MM1.S (mm1.s), the EC50 result is given as “Not Active”. In the case of `Cc1ccc(C)n1-c1cc(C(=O)N/N=C/c2ccc3nccnc3c2)ccc1C(=O)O`, the EC50 entry in the assay with NCI-H2171 (nci-h2171) and in the assay on MM1.S (mm1.s) was “Not Active” each time.

For the molecule `Cc1ccc(C)n1-c1c(C(=O)O)cccc1[N+](=O)[O-]`, the IC50 result in assay [1] is listed as “Not Active”.

As to `Cc1ccc(C)n1-c1cc(C(=O)N/N=C/c2ccc3ccccc3n2)ccc1C(=O)O`, the EC50 result in the assay on NCI-H2171 (nci-h2171) is listed as “Not Active”.

On to `Cc1ccc(C)n1-c1cc(C(=O)N/N=C/c2ccc(-c3cncnc3)cc2)ccc1C(=O)O`, for which the EC50 entry with NCI-H2171 (nci-h2171) and in the assay with MM1.S (mm1.s) was “Not Active” in each case. On to `Cc1cc(C)c2c(=O)c(/C=N/NC(=O)c3ccc(C(=O)O)c(-n4c(C)ccc4C)c3)coc2c1`, for which the concentration for a half-maximal effect (EC50) entry in the assay on NCI-H2171 (nci-h2171) is on record as “Not Active”. For `Cc1ccc(C)n1-c1cc(C(=O)N/N=C\c2cc(F)c(C(=O)O)c(F)c2)ccc1C(=O)O`, the EC50 result in the assay with NCI-H2171 (nci-h2171) and in the assay on MM1.S (mm1.s) was “Not Active” throughout. Regarding `CC(=O)Oc1cc(-n2c(C)ccc2C)ccc1C(=O)O`, in assay [1], the IC50 result is “Not Active”. For the molecule `Cc1c(C)c(C)n(-c2ccccc2C(=O)O)c1C`, in assay [1] (read-out: IC50), the IC50 turned out to be 83.4 µM.

Consider `Cc1ccc(C)n1-c1cc(C(=O)N/N=C/c2cccnc2)ccc1C(=O)O`, for which the EC50 entry in the assay on NCI-H2171 (nci-h2171) was “Not Active”. In the case of `Cc1ccc(C)n1-c1cc(C(=O)NCCc2cccc(C(=O)O)c2)ccc1C(=O)O`, the IC50 in assay [1] (read-out: IC50) amounted to 7.27 µM.

For `Cc1ccc(C)n1-c1cc(C(=O)N/N=C/c2c[nH]c3cc(F)ccc23)ccc1C(=O)O`, the EC50 result with MM1.S (mm1.s) was “Not Active”. In the case of `Cc1ccc(C)n1-c1cc(C(=O)N/N=C/c2cccc(C(=O)O)c2)ccc1C(=O)O`, the EC50 entry in the assay on NCI-H2171 (nci-h2171) and with MM1.S (mm1.s) was “Not Active” throughout. As for `Cc1ccc(C)n1-c1cc(C(=O)N/N=C/c2cc(F)c(F)c(F)c2)ccc1C(=O)O`, the EC50 entry in the assay with MM1.S (mm1.s) was “Not Active”. As to `Cc1ccc(C)n1-c1cc(C(=O)N/N=C/c2cc(C(=O)O)ccc2F)ccc1C(=O)O`, the EC50 entry with NCI-H2171 (nci-h2171) was “Not Active”. Same read-out and setting: the same measure for `Cc1ccc(C)n1-c1cnccc1C(=O)O`: “Not Active”.

Take `COc1ccc(/C=N/NC(=O)c2ccc(C(=O)O)c(-n3c(C)ccc3C)c2)c(OC)c1`: the EC50 entry in the assay on MM1.S (mm1.s) is given as “Not Active”. For the molecule `Cc1ccc(C)n1-c1ccc(C(=O)O)c([N+](=O)[O-])c1`, the EC50 result in the assay with NCI-H2171 (nci-h2171) was “Not Active”. As to `Cc1ccc(C)n1-c1cc(C(=O)N/N=C\c2ccc(S(=O)(=O)O)cc2)ccc1C(=O)O`, the EC50 result in the assay with MM1.S (mm1.s) is “Not Active”. With `Cc1ccc(C)n1-c1cc(C(=O)N/N=C/c2c[nH]cn2)ccc1C(=O)O`, the EC50 entry in the assay on NCI-H2171 (nci-h2171) and in the assay on MM1.S (mm1.s) was “Not Active” throughout.
